Data published in US8962637B2, “Bicyclic compounds and their uses as dual c-SRC/JAK inhibitors” (Debiopharm S.A., priority 2010, dated 2015).

Tests used:
pStat3 = assay: Quantification of pStat3 in PBMCs by flow cytometry; format: in vivo, mice
Method: Phosphorylation of Stat3 was stimulated by addition of hIL6 (10 ug/mL) for 30 min at 37° C. Blood was fixed with formaldehyde (final 2% v/v) for 10 min at 37° C.
Buffy coat (PBMCs) was separated by aspirating translucent layer using pipetteman and washed twice with PBS-1×
Pre chilled PBMC's were permeabilized by adding ice cold Methanol, while vortexing gently (final volume 90% MeOH v/v) and incubated for 30 min on ice.
Permeabilized PBMCs were washed with PBS once. PBMCs re-suspended to 2×10^6 cells in 200 μL of incubation buffer for 10 min at room temperature (RT). Primary Ab was added (1:100 dilution) and incubated 45 min at RT. Washed as before (twice) and re-suspended in fluorochrome conjugated secondary Ab (1:500 dilution) and incubated at RT in dark for 30 min. Washed and re-suspended in […] PBS.
Measured pStat3 using FACS caliber machine (BD). Unstained PBMCs was used for cytometry settings. […] Histograms (cell number V/s FL1-H) were plotted. Percentage of cells that are phosphorylated by IL6 stimulation (M2 population), and inhibition of phosphorylation by inhibitor (decrease in M2 population) are calculated on histogram by marking peaks, M1 and M2.

A549 tumor cells = assay: A549 xenograft model; format: in vivo
Method: Sub-cutaneous (SC) injection of 5×10^6 A549 tumor cells on the left flank of 48 female athymic nude mice. Randomization of mice 14 days after tumor cell injection into 6 groups of 8 mice each with a mean tumor volume of 134±5 mm3.
Formulation: 20% HPC, 2% ethanol solution in PBS for the compounds No. 45, 117 and 179.
• Normal saline for Erlotinib® Dosing route: Oral for the compounds No. 45, 117 and 179, and Erlotinib® Dose Volume: 10 mL/Kg body weight Dosing schedule: Once daily for 14 consecutive days (Q1Dx14) Dosage: • Group1. Vehicle control • Group2. Erlotinib®-100 MPK • Group3. Compound No. 45—10 MPK • Group4. Compound No. 45—30 MPK • Group5. Compound No. 45—100 MPK • Group6. Compound No. 117—30 MPK • Group7. Compound No. 117—100 MPK • Group8. Compound No. 179—10 MPK • Group9. […] Plasma collected for drug concentration estimation and whole blood was collected to isolate PBMCs (peripheral blood monocytes) to determine pStat3 inhibition by flow cytometry as PD readout. Tumors were snap frozen in liquid nitrogen and stored at −80° C. to estimate pStat3 by flow cytometry as PD readout EXPT. 2
SC injection of 5×10^6 A549 tumor cells on the left flank of 24 female athymic nude mice. Randomization of mice 14 days after tumor cell injection into 3 groups of 8 mice each with a mean tumor volume of 75±7 mm3.
(§1) Formulation: 20% HPC, 2% ethanol solution in PBS for the compound No. 45
• Normal saline for Erlotinib® Dosing route: Oral for compound No. 45 and Erlotinib® Dose Volume: 10 mL/Kg body weight Dosing schedule: Once daily for 14 consecutive days (Q1Dx14) Dosage: • Group1. Vehicle control • Group2. Compound No. 45—150 MPK • Group3. […] Plasma collected for drug concentration estimation and whole blood was collected to isolate PBMCs to determine pStat3 inhibition by flow cytometry as PD readout. Tumors were snap frozen in liquid nitrogen and stored at −80° C. to estimate pStat3 by flow cytometry as PD readout Results: […]

B16F10 tumor cells [1] = assay: B16F10 survival model; format: in vivo, C57B16 mice
Method: (§2) IV injection of 0.1×10^6 B16F10 tumor cells in the tail vain of 60 male C57B16 mice. Randomization of mice one day after tumor cell injection into 4 groups of 15 mice. Out of 15, 6 mice were sacrificed on 14th day for counting metastatic foci on lungs. Rest 9 mice were dosed continuously till morbidity/mortality for recording survival.
(§3) Plasma collected for drug concentration estimation and whole blood was collected to isolate PBMCs to determine pStat3 inhibition by flow cytometry as PD readout.

JAK1 = JAK1 (Homo sapiens (Human), UniProt P23458); assay: JAK1 kinase inhibition; format: biochemical
c-Src = c-Src (Homo sapiens (Human), UniProt P12931); assay: TR-FRET c-Src kinase assay; format: biochemical; conditions: ATP 50 μM; for inhibition at 0.1 µM: read-out: c-SRC % inhibition at 100 nM, 100 nM; for inhibition at 1 µM: read-out: c-SRC % inhibition at 1 μM
Method: Compounds were screened in the TR-FRET assay for JAK2 and c-Src kinase inhibition. Ultra light poly GT (Perkin Elmer) was used as the substrate for JAK2 and c-Src with the ATP concentration of 10 μM and 50 μM, respectively. […] The dose-response curve fitting was done using GraphPad Prism software.

B16F10 tumor cells [2] = assay: B16F10 metastasis model; format: in vivo, C57B16 mice; conditions: for Metastasis Inhibition: B16F10 model; for % metastasis inhib.: Efficacy - B16F10 at 100 MPK
Method: as §2, §1, §3

A431 tumor cells = assay: A431 xenograft model; format: in vivo, athymic nude mice; conditions: for TGI: Efficacy - A431 at 100 MPK
Method: SC injection of 5×10^6 A431 tumor cells with Matrigel® on the left flank of 24 female athymic nude mice. Randomization of mice 14 days after tumor cell injection into 3 groups of 8 mice each with a mean tumor volume of 90±1 mm3.
as §1
• Normal saline for Gefitinib® Dosing route: Oral for the compound No. 45 and Gefitinib® Dose Volume: 10 mL/Kg body weight Dosing schedule: Once daily for 14 consecutive days (Q1Dx14) PK-PD experiment in A431 model: Tumors were allowed to grow to 250 mm^3 size. Compounds were dosed once and PBMCs and tumors were collected at Tmax for pStat3 estimation. Plasma was also collected to estimate drug concentration estimation. Efficacy experiment in A431 model: Dosage: • Group1. Vehicle control • Group2. Compound No. 45—150 MPK • Group3. […] Plasma collected for drug concentration estimation and whole blood was collected to isolate PBMCs to determine pStat3 inhibition by flow cytometry as PD readout. Tumors were snap frozen in liquid nitrogen and stored at −80° C. to estimate pStat3 by flow cytometry as PD readout Determination of Plasma Drug Concentration: […]

Chain of JAK1 (P23458 whole entry): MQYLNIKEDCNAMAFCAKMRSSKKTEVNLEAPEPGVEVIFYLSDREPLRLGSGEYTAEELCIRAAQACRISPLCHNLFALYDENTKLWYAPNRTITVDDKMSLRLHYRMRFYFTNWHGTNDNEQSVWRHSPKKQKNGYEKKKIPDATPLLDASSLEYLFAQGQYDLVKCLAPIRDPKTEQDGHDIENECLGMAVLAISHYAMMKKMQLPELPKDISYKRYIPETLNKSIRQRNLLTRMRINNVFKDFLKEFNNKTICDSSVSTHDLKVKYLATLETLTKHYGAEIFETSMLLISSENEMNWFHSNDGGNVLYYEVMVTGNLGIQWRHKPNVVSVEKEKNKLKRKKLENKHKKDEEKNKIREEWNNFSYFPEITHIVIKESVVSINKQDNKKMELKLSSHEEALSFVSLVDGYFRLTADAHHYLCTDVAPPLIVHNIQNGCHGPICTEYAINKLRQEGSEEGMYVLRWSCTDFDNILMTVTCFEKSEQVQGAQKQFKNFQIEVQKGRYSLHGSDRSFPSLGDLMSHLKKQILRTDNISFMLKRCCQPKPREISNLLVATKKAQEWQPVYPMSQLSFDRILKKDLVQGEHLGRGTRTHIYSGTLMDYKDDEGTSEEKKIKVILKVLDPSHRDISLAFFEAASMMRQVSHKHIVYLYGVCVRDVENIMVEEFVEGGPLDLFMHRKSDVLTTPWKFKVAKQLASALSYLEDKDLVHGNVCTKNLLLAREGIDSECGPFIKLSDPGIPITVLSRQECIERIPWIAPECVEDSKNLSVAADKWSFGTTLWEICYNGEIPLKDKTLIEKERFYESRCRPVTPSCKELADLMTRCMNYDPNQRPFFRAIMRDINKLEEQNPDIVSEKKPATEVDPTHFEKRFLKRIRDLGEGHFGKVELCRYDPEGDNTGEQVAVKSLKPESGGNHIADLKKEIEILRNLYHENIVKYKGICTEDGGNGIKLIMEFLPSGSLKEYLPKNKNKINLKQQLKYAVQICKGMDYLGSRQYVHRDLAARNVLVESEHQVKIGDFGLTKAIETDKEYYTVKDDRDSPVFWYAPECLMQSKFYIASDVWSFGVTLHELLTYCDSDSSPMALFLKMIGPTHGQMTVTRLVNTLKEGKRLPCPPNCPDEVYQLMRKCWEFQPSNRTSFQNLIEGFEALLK
Chain of c-Src (P12931 whole entry, looked up): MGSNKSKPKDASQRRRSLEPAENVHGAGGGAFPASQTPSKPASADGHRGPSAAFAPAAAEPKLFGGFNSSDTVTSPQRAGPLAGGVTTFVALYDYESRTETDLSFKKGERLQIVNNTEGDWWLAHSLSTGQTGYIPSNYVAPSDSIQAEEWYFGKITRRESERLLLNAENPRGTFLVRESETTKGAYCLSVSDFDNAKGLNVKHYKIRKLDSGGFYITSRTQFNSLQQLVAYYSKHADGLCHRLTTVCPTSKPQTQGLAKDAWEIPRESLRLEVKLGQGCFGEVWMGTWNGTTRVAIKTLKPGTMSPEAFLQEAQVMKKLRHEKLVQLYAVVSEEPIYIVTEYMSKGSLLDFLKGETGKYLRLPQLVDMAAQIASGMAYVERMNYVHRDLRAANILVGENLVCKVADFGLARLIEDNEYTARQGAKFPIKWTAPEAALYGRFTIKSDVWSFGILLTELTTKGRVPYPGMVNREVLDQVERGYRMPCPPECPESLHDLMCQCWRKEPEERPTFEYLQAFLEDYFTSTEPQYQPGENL

## Cc1ccc(NC(=O)c2cccc(C(F)(F)F)c2)cc1N1CCc2nc(Nc3ccc(N4CCN(C)CC4)cc3)ncc2C1=O [Compound 45, N-(4-Methyl-3-{2-[4-(4-methyl-piperazin-1-yl)-phenylamino]-5-oxo-7,8-dihydro-5H-pyrido[4,3-d]pyrimidin-6-yl}-phenyl)-3-trifluoromethyl-benzamide]
pStat3; A431 Xenograft model, 100 MPK
  PBMCs % pStat3 inhibition: 56.32%
pStat3; A549 Xenograft model, 10 MPK
  PBMCs % pStat3 inhibition: 55.61%
pStat3; A549 Xenograft model, 30 MPK
  PBMCs % pStat3 inhibition: 60.66%
pStat3; A549 Xenograft model, 100 MPK
  PBMCs % pStat3 inhibition: 65.28%
pStat3; A549 Xenograft model, 150 MPK
  PBMCs % pStat3 inhibition: 76.56%
pStat3; B16F10 model, 30 MPK
  PBMCs % pStat3 inhibition: 66%
pStat3; B16F10 model, 100 MPK
  PBMCs % pStat3 inhibition: 73%
pStat3; at 100 MPK
  % pSTAT3 inhibition in PBMCs (MTD study): 84% at
A549 tumor cells; A549 Xenograft model, 10 MPK
  % TGI (Tumor Growth Inhibition): 28.90%
A549 tumor cells; A549 Xenograft model, 30 MPK
  % TGI (Tumor Growth Inhibition): 55.62%
A549 tumor cells; A549 Xenograft model, 100 MPK
  % TGI (Tumor Growth Inhibition): 63.86%
A549 tumor cells; A549 Xenograft model, 150 MPK
  % TGI (Tumor Growth Inhibition): 53.74%
  TGI: 54
A549 tumor cells; A549 xenograft model, 100 MPK (Q1Dx14)
  tumor growth inhibition: 64%
A549 tumor cells; Efficacy - A549, at 100 MPK
  TGI: 64% at
A549 tumor cells; up to 150 MPK during A549 efficacy study
  compound related toxicity: No major effects of compound related toxicity
B16F10 tumor cells [1]; B16F10 survival model, dosing Q1Dx14
  Survival advantage: 37.5%
B16F10 tumor cells [1]; Efficacy - B16F10 at 100 MPK
  Survival advantage: 9 days
JAK1
  IC50: 116 nM
JAK1; read-out: JAK1 % inhibition at 100 nM
  inhibition at 0.1 µM: 56%
JAK1; read-out: JAK1 % inhibition at 1 μM
  inhibition at 1 µM: 82%
c-Src
  IC50: 10 nM
B16F10 tumor cells [2]; B16F10 metastasis model
  anti-tumor activity: good anti-tumor activity
B16F10 tumor cells [2]; B16F10 metastasis model, 100 MPK, Q1Dx14
  reduction in metastatic counts on lungs: 75%
B16F10 tumor cells [2]; 30 MPK
  Metastasis Inhibition: 73%
B16F10 tumor cells [2]; 100 MPK
  Metastasis Inhibition: 75%
B16F10 tumor cells [2]
  % metastasis inhib.: 75%
A431 tumor cells; A431 Xenograft model, 100 MPK
  % TGI: 52.55%
A431 tumor cells
  TGI: 48%

## Cc1ccc(NC(=O)c2cccc(C(F)(F)F)c2)cc1N1CCc2nc(Nc3ccc(C(=O)NC4CC4)nc3)ncc2C1 [Compound 117, 5-{6-[2-Methyl-5-(3-trifluoromethyl-benzoylamino)-phenyl]-5,6,7,8-tetrahydro-pyrido[4,3-d]pyrimidin-2-ylamino}-pyridine-2-carboxylic acid cyclopropylamide]
pStat3; at 100 MPK
  % pSTAT3 inhibition in PBMCs (MTD study): 83% at
A549 tumor cells; Efficacy - A549, at 100 MPK
  TGI: 56% at
B16F10 tumor cells [1]; Efficacy - B16F10 at 100 MPK
  Survival advantage: 1 day days
JAK1
  IC50: 24 nM
c-Src
  inhibition at 0.1 µM: 80%
  inhibition at 1 µM: 96%
B16F10 tumor cells [2]
  % metastasis inhib.: 26%
A431 tumor cells
  TGI: 54%

## CNC(=O)c1ccc(Nc2ncc3c(n2)CCN(c2cc(NC(=O)c4cc(C(F)(F)F)ccn4)ccc2Cl)C3)cc1 [Compound 179, 4-Trifluoromethyl-pyridine-2-carboxylic acid {4-chloro-3-[2-(4-methylcarbamoyl-phenylamino)-7,8-dihydro-5H-pyrido[4,3-d]pyrimidin-6-yl]-phenyl}-amide]
pStat3; at 30 MPK
  % pSTAT3 inhibition in PBMCs (MTD study): 65% at
A549 tumor cells; Efficacy - A549, at 30 MPK
  TGI: 68% at
B16F10 tumor cells [1]; Efficacy - B16F10 at 100 MPK
  Survival advantage: 4 days
JAK1
  IC50: 12 nM
c-Src
  IC50: 15 nM
  inhibition at 0.1 µM: 79%
  inhibition at 1 µM: 93%
B16F10 tumor cells [2]
  % metastasis inhib.: 47%
A431 tumor cells
  TGI: 67%
